# In US9730944B2, “Antiviral activity of novel bicyclic heterocycles” (priority 2010, dated 2017):
# Read-outs that look alike come from different tables or passages of the source.
# Columns and labels:
# in vitro [1] = details: human, PV CC50
# [2] = Cytotoxicity in HCV-1a replicon cells, Promega CellTiter-Glo cell viability assay
# [3] = test system: genotype 1a H-77 replicon; assay: HCV-1a replicon potency in RLuc-1 cells, bioluminescence; format: cell-based; details: for EC50: Hepatitis C virus, 72 h, read-out: HCV-1a Replicon EC50 (μM); for HCV-1a Replicon Selectivity Index: CC50/EC50, genotype 1a replicon
# in vitro [4] = details: African green monkey, PV CC50
# poliovirus (PV type 1) = assay: microbe, parasite or virus in culture; format: cell-based; details: Enterovirus C, read-out: PV-1 EC50
# poliovirus (PV type 3) = assay: microbe, parasite or virus in culture; format: cell-based; details: Enterovirus C, read-out: PV-3 EC50
# poliovirus (PV type 2) = assay: microbe, parasite or virus in culture; format: cell-based; details: Enterovirus C, read-out: PV-2 EC50
# HIV-2 strain (ROD) = assay: Inhibition of replication of HIV-2 (ROD strain) in MT-4 cells, MTT assay; format: cell-based; details: Human immunodeficiency virus 2, MT4, 120 h; MT-4 cells, MTT assay, five days after infection, 50% protection from cytopathic effect; read-out: EC50 (μM) HIV-2 (ROD)
# in vitro [5] = details: human
# HIV-1 strain IIIB = assay: Inhibition of replication of HIV-1 (IIIB strain) in MT-4 cells, MTT assay; format: cell-based; details: Human immunodeficiency virus 1, IIIB, MT4, 120 h; MT-4 cells, MTT assay, five days after infection, 50% protection from cytopathic effect; read-out: EC50 (μM) HIV-1 (IIIB)
smiles,measurement,setting,value
"COCc1nc2c(N3CCN(C(=O)COc4ccc(Cl)cc4)CC3)nc(N)nc2o1 [Example 186, 5-amino-7-[4-(4-chlorophenoxyacetyl)piperazin-1-yl]-2-methoxylmethyloxazolo[5,4-d]pyrimidine]",CC50,in vitro [1],> 50 µg/mL
same,CC50 at 72 h,[2],> 44.4 µM
same,EC50,[3],> 44.4 µM
same,CC50,in vitro [4],95.2 µg/mL
same,EC50,poliovirus (PV type 1); HeLa,3.16 µg/mL
same,EC50,poliovirus (PV type 1); Vero,1.07 µg/mL
same,EC50,poliovirus (PV type 3); HeLa,3.21 µg/mL
same,EC50,poliovirus (PV type 3); Vero,10.7 µg/mL
same,EC50,poliovirus (PV type 2); HeLa,9.42 µg/mL
same,EC50,poliovirus (PV type 2); Vero,2.96 µg/mL
"Nc1nc(N2CCN(C(=O)COc3ccc(Cl)cc3)CC2)c2nc(C3CCCCC3)oc2n1 [Example 187, 5-amino-2-cyclohexyl-7-[4-(4-chlorophenoxyacetyl)piperazin-1-yl]oxazolo[5,4-d]pyrimidine]",CC50,in vitro [1],> 50 µg/mL
same,CC50 at 72 h,[2],24.3 µM
same,HCV-1a Replicon Selectivity Index,[3],1.3
same,EC50,[3],19 µM
same,CC50,in vitro [4],118 µg/mL
same,EC50,poliovirus (PV type 1); HeLa,> 50 µg/mL
same,EC50,poliovirus (PV type 1); Vero,> 50 µg/mL
same,EC50,poliovirus (PV type 3); HeLa,> 50 µg/mL
same,EC50,poliovirus (PV type 3); Vero,> 50 µg/mL
same,EC50,poliovirus (PV type 2); HeLa,> 50 µg/mL
same,EC50,poliovirus (PV type 2); Vero,≥ 50 µg/mL
"Nc1nc(N2CCN(C(=O)COc3ccc(Cl)cc3)CC2)c2nc(CCc3ccc(F)cc3)sc2n1 [Example 49, 1-(4-(5-amino-2-(4-fluorophenethyl)-thiazolo[5,4-d]pyrimidin-7-yl)piperazin-1-yl)-2-(4-chlorophenoxy)ethanone]",EC50,HIV-2 strain (ROD),> 7.06 µM
same,CC50,in vitro [1],> 50 µg/mL
same,CC50 at 72 h,[2],> 44.4 µM
same,HCV-1a Replicon Selectivity Index,[3],>1.1
same,EC50,[3],42.1 µM
same,CC50,in vitro [4],101 µg/mL
same,CC50,in vitro [5],> 50 µM
same,EC50,poliovirus (PV type 1); HeLa,0.13 µg/mL
same,EC50,poliovirus (PV type 1); Vero,0.13 µg/mL
same,EC50,poliovirus (PV type 3); HeLa,> 50 µg/mL
same,EC50,poliovirus (PV type 3); Vero,1.17 µg/mL
same,EC50,HIV-1 strain IIIB,1.13 µM
same,EC50,poliovirus (PV type 2); HeLa,0.13 µg/mL
same,EC50,poliovirus (PV type 2); Vero,0.21 µg/mL
"Nc1nc(N2CCN(C(=O)COc3ccc(Cl)cc3)CC2)c2nc(-c3ccc(F)cc3)[nH]c2n1 [Example 389, 1-(4-(2-amino-8-(4-fluorophenyl)-9H-purin-6-yl)piperazin-1-yl)-2-(4-chlorophenoxy)ethanone]",CC50,in vitro [1],> 50 µg/mL
same,CC50 at 72 h,[2],> 44.4 µM
same,EC50,[3],> 44.4 µM
same,CC50,in vitro [4],> 150 µg/mL
same,EC50,poliovirus (PV type 1); HeLa,> 16.7 µg/mL
same,EC50,poliovirus (PV type 1); Vero,> 50 µg/mL
same,EC50,poliovirus (PV type 3); HeLa,37.6 µg/mL
same,EC50,poliovirus (PV type 3); Vero,> 50 µg/mL
same,EC50,poliovirus (PV type 2); HeLa,16.7 µg/mL
same,EC50,poliovirus (PV type 2); Vero,≥ 50 µg/mL
"NC(=O)Cc1nc(N2CCN(C(=O)COc3ccc(Cl)cc3)CC2)c2cc(-c3ccc(F)cc3)sc2n1 [Example 358, 2-(4-(4-(2-(4-chlorophenoxy)acetyl)piperazin-1-yl)-6-(4-fluorophenyl)thieno[2,3-d]pyrimidin-2-yl)acetamide]",EC50,HIV-2 strain (ROD),> 19.1 µM
same,CC50,in vitro [1],> 50 µg/mL
same,CC50,in vitro [4],> 150 µg/mL
same,CC50,in vitro [5],> 19.1 µM
same,EC50,poliovirus (PV type 1); HeLa,> 50 µg/mL
same,EC50,poliovirus (PV type 1); Vero,> 50 µg/mL
same,EC50,poliovirus (PV type 3); HeLa,> 50 µg/mL
same,EC50,poliovirus (PV type 3); Vero,> 50 µg/mL
same,EC50,HIV-1 strain IIIB,> 19.1 µM
same,EC50,poliovirus (PV type 2); HeLa,≥ 50 µg/mL
same,EC50,poliovirus (PV type 2); Vero,> 50 µg/mL
"Cc1cccc(OCC(=O)N2CCN(c3nc(N)nc4sc(CCc5ccc(F)cc5)nc34)CC2)c1 [Example 53, 1-(4-(5-amino-2-(4-fluorophenethyl)thiazolo[5,4-d]pyrimidin-7-yl)piperazin-1-yl)-2-(m-tolyloxy)ethanone]",EC50,HIV-2 strain (ROD),> 7.96 µM
same,CC50,in vitro [1],> 50 µg/mL
same,CC50,in vitro [4],> 150 µg/mL
same,CC50,in vitro [5],201 µM
same,EC50,poliovirus (PV type 1); HeLa,0.41 µg/mL
same,EC50,poliovirus (PV type 1); Vero,0.12 µg/mL
same,EC50,poliovirus (PV type 3); HeLa,> 16.7 µg/mL
same,EC50,poliovirus (PV type 3); Vero,1.4 µg/mL
same,EC50,HIV-1 strain IIIB,> 7.96 µM
same,EC50,poliovirus (PV type 2); HeLa,9.73 µg/mL
same,EC50,poliovirus (PV type 2); Vero,0.14 µg/mL
"Nc1nc(N2CCN(C(=O)COc3ccc(Cl)cc3Cl)CC2)c2nc(CCc3ccc(F)cc3)sc2n1 [Example 54, 1-(4-(5-amino-2-(4-fluorophenethyl)thiazolo[5,4-d]pyrimidin-7-yl)piperazin-1-yl)-2-(2,4-dichlorophenoxy)ethanone]",EC50,HIV-2 strain (ROD),> 157 µM
same,CC50,in vitro [1],> 50 µg/mL
same,CC50,in vitro [4],138 µg/mL
same,CC50,in vitro [5],157 µM
same,EC50,poliovirus (PV type 1); HeLa,> 50 µg/mL
same,EC50,poliovirus (PV type 1); Vero,> 50 µg/mL
same,EC50,poliovirus (PV type 3); HeLa,≥ 50 µg/mL
same,EC50,poliovirus (PV type 3); Vero,> 50 µg/mL
same,EC50,HIV-1 strain IIIB,> 157 µM
same,EC50,poliovirus (PV type 2); HeLa,≥ 50 µg/mL
same,EC50,poliovirus (PV type 2); Vero,≥ 50 µg/mL
"O=C(O)c1nc(N2CCN(C(=O)COc3ccc(Cl)cc3)CC2)c2cc(-c3ccc(F)cc3)sc2n1 [Example 357, 4-(4-(2-(4-chlorophenoxy)acetyl)piperazin-1-yl)-6-(4-fluorophenyl)thieno[2,3-d]pyrimidine-2-carboxylic acid]",EC50,HIV-2 strain (ROD),> 237 µM
same,CC50,in vitro [1],> 50 µg/mL
same,CC50,in vitro [4],61.4 µg/mL
same,CC50,in vitro [5],> 237 µM
same,EC50,poliovirus (PV type 1); HeLa,> 50 µg/mL
same,EC50,poliovirus (PV type 1); Vero,> 50 µg/mL
same,EC50,poliovirus (PV type 3); HeLa,> 50 µg/mL
same,EC50,poliovirus (PV type 3); Vero,> 50 µg/mL
same,EC50,HIV-1 strain IIIB,157 µM
same,EC50,poliovirus (PV type 2); HeLa,≥ 50 µg/mL
same,EC50,poliovirus (PV type 2); Vero,> 50 µg/mL
"CCOC(=O)Cc1nc(N2CCN(C(=O)COc3ccc(Cl)cc3)CC2)c2cc(-c3ccc(F)cc3)sc2n1 [Example 354, ethyl 2-(4-(4-(2-(4-chlorophenoxy)acetyl)piperazin-1-yl)-6-(4-fluorophenyl)thieno[2,3-d]pyrimidin-2-yl)acetate]",EC50,HIV-2 strain (ROD),> 159 µM
same,CC50,in vitro [1],> 50 µg/mL
same,CC50,in vitro [4],129 µg/mL
same,CC50,in vitro [5],159 µM
same,EC50,poliovirus (PV type 1); HeLa,> 50 µg/mL
same,EC50,poliovirus (PV type 1); Vero,> 50 µg/mL
same,EC50,poliovirus (PV type 3); HeLa,> 50 µg/mL
same,EC50,poliovirus (PV type 3); Vero,> 50 µg/mL
same,EC50,HIV-1 strain IIIB,> 159 µM
same,EC50,poliovirus (PV type 2); HeLa,≥ 50 µg/mL
same,EC50,poliovirus (PV type 2); Vero,> 50 µg/mL
"NC(=O)c1nc(N2CCN(C(=O)COc3ccc(Cl)cc3)CC2)c2cc(-c3ccc(F)cc3)sc2n1 [Example 355, 4-(4-(2-(4-chlorophenoxy)acetyl)piperazin-1-yl)-6-(4-fluorophenyl)thieno[2,3-d]pyrimidine-2-carboxamide]",EC50,HIV-2 strain (ROD),> 150 µM
same,CC50,in vitro [1],> 50 µg/mL
same,CC50,in vitro [4],117 µg/mL
same,CC50,in vitro [5],150 µM
same,EC50,poliovirus (PV type 1); HeLa,> 50 µg/mL
same,EC50,poliovirus (PV type 1); Vero,> 50 µg/mL
same,EC50,poliovirus (PV type 3); HeLa,> 50 µg/mL
same,EC50,poliovirus (PV type 3); Vero,> 50 µg/mL
same,EC50,HIV-1 strain IIIB,> 150 µM
same,EC50,poliovirus (PV type 2); HeLa,≥ 50 µg/mL
same,EC50,poliovirus (PV type 2); Vero,≥ 50 µg/mL
"Nc1nc(N2CCN(C(=O)COc3ccc(Cl)cc3)CC2)c2nc(CCc3ccccc3)oc2n1 [Example 189, 5-amino-2-(2-phenylethyl)-7-[4-(4-chlorophenoxyacetyl)piperazin-1-yl]oxazolo[5,4-d]pyrimidine]",CC50,in vitro [1],> 50 µg/mL
same,CC50 at 72 h,[2],40.5 µM
same,HCV-1a Replicon Selectivity Index,[3],2.0
same,EC50,[3],20.6 µM
same,CC50,in vitro [4],> 150 µg/mL
same,EC50,poliovirus (PV type 1); HeLa,1.14 µg/mL
same,EC50,poliovirus (PV type 1); Vero,0.86 µg/mL
same,EC50,poliovirus (PV type 3); HeLa,> 50 µg/mL
same,EC50,poliovirus (PV type 3); Vero,1.19 µg/mL
same,EC50,poliovirus (PV type 2); HeLa,1.15 µg/mL
same,EC50,poliovirus (PV type 2); Vero,0.4 µg/mL
"Cc1nc(N2CCN(C(=O)COc3ccc(Cl)cc3)CC2)c2nc(-c3ccc(F)cc3)sc2n1 [Example 47, 2-(4-chlorophenoxy)-1-(4-(2-(4-fluorophenyl)-5-methylthiazolo[5,4-d]pyrimidin-7-yl)piperazin-1-yl)ethanone]",EC50,HIV-2 strain (ROD),> 50 µM
same,CC50,in vitro [1],> 50 µg/mL
same,CC50,in vitro [4],> 150 µg/mL
same,CC50,in vitro [5],> 50 µM
same,EC50,poliovirus (PV type 1); HeLa,> 50 µg/mL
same,EC50,poliovirus (PV type 1); Vero,0.64 µg/mL
same,EC50,poliovirus (PV type 3); HeLa,> 50 µg/mL
same,EC50,poliovirus (PV type 3); Vero,> 50 µg/mL
same,EC50,HIV-1 strain IIIB,> 50 µM
same,EC50,poliovirus (PV type 2); HeLa,≥ 50 µg/mL
same,EC50,poliovirus (PV type 2); Vero,0.35 µg/mL
"Nc1nc(N2CCN(C(=O)COc3ccc(F)cc3)CC2)c2nc(CCc3ccc(F)cc3)sc2n1 [Example 51, 1-(4-(5-amino-2-(4-fluorophenethyl)thiazolo[5,4-d]pyrimidin-7-yl)piperazin-1-yl)-2-(4-fluorophenoxy)ethanone]",EC50,HIV-2 strain (ROD),> 210 µM
same,CC50,in vitro [1],> 50 µg/mL
same,CC50,in vitro [4],50 µg/mL
same,CC50,in vitro [5],210 µM
same,EC50,poliovirus (PV type 1); HeLa,0.13 µg/mL
same,EC50,poliovirus (PV type 1); Vero,0.12 µg/mL
same,EC50,poliovirus (PV type 3); HeLa,20.2 µg/mL
same,EC50,poliovirus (PV type 3); Vero,2.68 µg/mL
same,EC50,HIV-1 strain IIIB,4.9 µM
same,EC50,poliovirus (PV type 2); HeLa,0.23 µg/mL
same,EC50,poliovirus (PV type 2); Vero,0.13 µg/mL
